Article PMC10686828, “DMSOP-cleaving enzymes are diverse and widely distributed in marine microorganisms” (Nature Microbiology, 2023)

How the values were obtained:
[1] = target: T1, DddY (Acinetobacter bereziniae) (Acinetobacter bereziniae, UniProt N8X9V6); test: HPLC of DMSO and acrylate; assay type: biochemical; conditions: 5 mM DMSOP, pH 8.0, 30 °C
T1 construct: gene F963_02809; pET-22b, C-terminal His tag, E. coli BL21(DE3); Ni-NTA and gel filtration
T1 sequence (N8X9V6 22-401 limits assumed): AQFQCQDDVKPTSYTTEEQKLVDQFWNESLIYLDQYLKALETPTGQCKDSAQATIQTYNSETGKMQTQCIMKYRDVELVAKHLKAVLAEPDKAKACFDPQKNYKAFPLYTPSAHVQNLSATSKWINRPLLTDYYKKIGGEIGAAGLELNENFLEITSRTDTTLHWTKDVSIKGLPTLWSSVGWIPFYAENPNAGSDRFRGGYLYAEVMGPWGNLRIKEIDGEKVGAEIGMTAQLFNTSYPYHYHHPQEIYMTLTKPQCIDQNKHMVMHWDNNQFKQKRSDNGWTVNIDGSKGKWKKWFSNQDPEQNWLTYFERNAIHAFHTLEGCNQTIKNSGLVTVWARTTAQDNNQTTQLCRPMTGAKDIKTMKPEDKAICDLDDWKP

[2] = system: T2, DddL; test: HPLC of acrylate, initial rates, non-linear fit; assay type: biochemical; conditions: pH 8, 30 °C
T2 construct: pET-22b, C-terminal His tag, E. coli BL21(DE3)

## C[S+](C)(=O)CCC(=O)[O-] [DMSOP]
[1]
  HPLC of DMSO and acrylate: purified DddY proteins yielded DMSO and acrylate from DMSOP
[2]
  Km: 65 ± 10.9 mM
